Data as given in US10912740B2, “Treating hepatitis C with cannabidiol” (Vilotos Pharmaceuticals, Inc., priority 2017, dated 2021).
“Also recorded” adds a separate entry of the source.

Experiments:
[1] = Compound cytotoxicity (MTS cell viability) in the anti-hepatitis B assay; type: cell-based; conditions: human, HepG2 2.2.15 cells (stable HBV-producing line), HBV assay, HepG2 2.2.15 cells
From the text: (§1) The pure cannabis cannabinoid CBD of FIG. 2 was subjected to a modified anti-hepatitis B assay. [Korba B E, Gerin J L, Use Of A Standardized Cell Culture Assay To Assess Activities Of Nucleoside Analogs Against Hepatitis B Virus Replication, Antiviral Res, 19:55-70 (1992); Korba B E, Milman G., A Cell Culture Assay For Compounds Which Inhibit Hepatitis B Virus Replication, Antiviral Res 1991; 15:217-28]. The modifications allowed use in real time quantitative polymerase chain reaction (PCR) (TaqMan) to measure extracellular HBV DNA copy number associated with virions released from HepG2 2.2.15 cells. The HepG2 2.2.15 cell line is a stable cell line producing high levels of the wild-type ayw1 strain of HBV. Antiviral compounds blocking any later step of viral replication such as transcription, translation, pregenomeencapsidation, reverse transcription, particle assembly, and release can be identified and characterized using this cell line. In brief, HepG2 2.2.15 cells are plated in 96-well microtiter plates. Only the interior wells were utilized to reduce “edge effects” observed during cell culture; the exterior wells were filled with complete medium to help minimize sample evaporation. After incubation with 5% CO2 atmosphere at 37° C. for 16-24 h, the confluent monolayer of HepG2 2.2.15 cells was washed and the medium was replaced with complete medium containing test compounds at a single concentration of 10 μM. Three days later, the culture medium was replaced with fresh medium and test compounds at a single concentration of 10 μM. Six days following the initial administration of the test compounds, the cell culture supernatant was collected, treated with pronase and DNAse, and then used in a real-time quantitative TaqMan PCR assay. Antiviral activity was determined by calculating the reduction in HBV DNA levels compared to untreated virus control samples. Compound cytotoxicity was determined using MTS (CellTiter 96 Reagent, Promega) to measure cell viability as described above.

[2] = test system: HBV; experiment: Anti-hepatitis B assay: extracellular HBV DNA by TaqMan PCR from HepG2 2.2.15 cells; type: cell-based, Hepatitis B virus (wild-type ayw1 strain); conditions: for Percentage virus inhibition: HBV, HepG2 2.2.15 cells, six days
From the text: as §1

[3] = test system: hepatitis C virus; experiment: Dose-response assay against hepatitis C virus (EC50); type: cell-based; conditions: for EC50: Hepatitis C virus, read-out: ES50 (EC50 against hepatitis C virus)
Experimental: (§2) Huh7.5 cells are grown in Dulbecco's modified essential media (DMEM), 10% fetal bovine serum (FBS), 1% penicillin-streptomycin (pen-strep), 1% Non-essential amino acids (NEAA) in a 5% CO2 incubator at 37° C. Huh7.5 cells were seeded at 1×10^4 cells per well into 96-well plates according to Southern Research Institute standard format. The test article was serially diluted with DMEM plus 5% FBS. The diluted compound in the amount of 50 μl was mixed with equal volume of cell culture-derived HCV (HCVcc), then applied to appropriate wells in the plate. Human interferon alpha-2b (rIFNα-2b) was included as a positive control compound. After 72 hr incubation at 37° C., the cells were lysed for measurement of luciferase activity using Renilla Luciferase Assay System (Promega) according to manufacturer's instruction. The number of cells in each well were determined by CytoTox-1 reagent (Promega). Test articles were tested with 6 serial dilution in triplicate to derive, if applicable, IC50 and IC90 (concentration inhibiting HCVcc infectivity by 50% and 90%, respectively), TC50 (concentration decreasing cell viability by 50%) and SI (selective index: TC50/IC50) values. In the replicon assay, Sub-confluent cultures of the ET line were plated out into 96-well plates that are dedicated for the analysis of cell numbers (cytotoxicity) or antiviral activity and the next day drugs were added to the appropriate wells. Cells were processed 72 hours later when the cells were still sub-confluent. After six half-log serial dilutions of the compound, the applicable EC50 (concentration inhibiting HCV replicon by 50%), EC90 (concentration inhibiting HCV replicon by 90%), IC50 (concentration decreasing cell viability by […]) and SI (selective index: […]) values were derived. HCV replicon levels are assessed as replicon derived Luc activity. The toxic concentration of drug that reduced cell numbers was assessed by the CytoTox-1 cell proliferation assay (Promega), a fluorometric assay of cell numbers (and cytotoxicity). […]

[4] = test system: HCVcc; experiment: Anti hepatitis C activity assay: HCVcc infectivity in Huh7.5 cells, luciferase readout, single dose; type: cell-based, Hepatitis C virus
Experimental: as §2

[5] = test system: HepG2 2.2.15 cells; experiment: Compound cytotoxicity (MTS cell viability) in the anti-hepatitis B assay; type: cell-based; conditions: cells used to culture HBV
From the text: as §1

[6] = test system: Huh7.5 cells; experiment: Cytotoxicity (CytoTox-1 cell number) in the HCVcc assay; type: cell-based; conditions: cells used to culture HCV
Experimental: (§3) Huh7.5 cells are grown in Dulbecco's modified essential media (DMEM), 10% fetal bovine serum (FBS), 1% penicillin-streptomycin (pen-strep), 1% Non-essential amino acids (NEAA) in a 5% CO2 incubator at 37° C. Huh7.5 cells were seeded at 1×10^4 cells per well into 96-well plates according to Southern Research Institute standard format. The test article was serially diluted with DMEM plus 5% FBS. The diluted compound in the amount of 50 μl was mixed with equal volume of cell culture-derived HCV (HCVcc), then applied to appropriate wells in the plate. Human interferon alpha-2b (rIFNα-2b) was included as a positive control compound. After 72 hr incubation at 37° C., the cells were lysed for measurement of luciferase activity using Renilla Luciferase Assay System (Promega) according to manufacturer's instruction. The number of cells in each well were determined by CytoTox-1 reagent (Promega). […] HCV replicon levels are assessed as replicon derived Luc activity. The toxic concentration of drug that reduced cell numbers was assessed by the CytoTox-1 cell proliferation assay (Promega), a fluorometric assay of cell numbers (and cytotoxicity). […]

[7] = as above; type: cell-based; conditions: human, Huh7.5 cells infected with HCVcc; HCVcc assay, Huh7.5 cells; CBD at 10 μM
Experimental: as §3

[8] = Cytotoxicity (CC50) in the HCV dose-response assay; type: cell-based; conditions: human, Huh7.5 cells
Experimental: as §3

Compound | cytotoxicity at 6 days, 2 µM (printed pM) ([1]; Lamivudine at 2 (row head pM)) | Percentage virus inhibition ([2]; Lamivudine at 2 (row head pM)) | EC50 [3] | Inhibition of the HCV virus in the dose-response assay (in words) ([3]; dose-response assay (Table 2)) | Percentage virus inhibition ([4]; HCVcc, CBD at single concentration 10 μM, Huh7.5 cells, 72 hr, 10 µM) | inhibition at 10 µM ([4]; Hepatitis C virus, Huh7.5, 72 h, HCVcc, CBD at single concentration 10 μM, Huh7.5 cells, 72 hr, read-out: Percentage virus inhibition) | Activity against HCV in vitro / inhibition of viral replication (in words) ([4]; in vitro, single-dose assay) | Cytotoxicity against HepG2 2.2.15 cells (in words) [5] | cytotoxicity at 6 days, 10 µM ([1]; CBD at 10 (title uM, row head pM)) | Toxicity against Huh7.5 cells (in words) [6] | cytotoxicity at 72 h, 10 µM [7] | CC50 at 72 h [8] | Percentage virus inhibition ([2]; CBD at single dose 10 (title uM, row head pM)) | Activity against HBV in vitro / inhibition of viral replication (in words) ([2]; in vitro, single-dose assay)
Nc1ccn([C@@H]2CS[C@H](CO)O2)c(=O)n1 [Lamivudine, reference compound] | 0% | 97.7% | – | – | – | – | – | – | – | – | – | – | – | –
C=C(C)[C@@H]1CCC(C)=C[C@H]1c1c(O)cc(CCCCC)cc1O [CBD, Cannabidiol] | – | – | 3.16 µM | dose-dependent inhibition | 84.6% | 86.4% | active against HCV | significant cytotoxicity | 65.7% | minimal toxicity | 2.7% | 15.7 ± 0.25 µM | 0% | not against HBV; also recorded: not active
CC(C)OC(=O)[C@H](C)N[P@](=O)(OC[C@H]1O[C@@H](n2ccc(=O)[nH]c2=O)[C@](C)(F)[C@@H]1O)Oc1ccccc1 [Sofosbuvir, reference compound] | – | – | 0.055 ± 0.0104 µM | – | – | – | – | – | – | – | – | > 10 µM | – | –
